Source: ChEMBL document CHEMBL4340530, “Peptide-based covalent inhibitors of MALT1 paracaspase” (Bioorg Med Chem Lett, 2019)
Active and inactive are the calls of the source. The rule behind the calls is not given here.

Legend:
[1] = target: Prothrombin (Homo sapiens) (UniProt P00734); experiment: Inhibition of thrombin (unknown origin) at 10 uM relative to control
Caspase-8 (Homo sapiens) = Caspase-8 (Homo sapiens) (UniProt Q14790); experiment: Inhibition of caspase-8 (unknown origin) at 10 uM
Trypsin (Homo sapiens) [2] = target: T1, Trypsin (Homo sapiens) (UniProt P07477+P07478+P35030); experiment: Inhibition of trypsin (unknown origin) at 1 uM relative to control; assay type: protein assay
[3] = target: Tryptase beta-2 (Homo sapiens) (UniProt P20231); experiment: Inhibition of tryptase b2 (unknown origin) at 1 uM relative to control
[4] = target: Coagulation factor X (Homo sapiens) (UniProt P00742); experiment: Inhibition of factor Xa (unknown origin) at 10 uM
[5] = target: T2, Cathepsin K (Homo sapiens) (UniProt P43235); experiment: Inhibition of cathepsin K (unknown origin) at 1 uM relative to control
T2 sequence (whole entry): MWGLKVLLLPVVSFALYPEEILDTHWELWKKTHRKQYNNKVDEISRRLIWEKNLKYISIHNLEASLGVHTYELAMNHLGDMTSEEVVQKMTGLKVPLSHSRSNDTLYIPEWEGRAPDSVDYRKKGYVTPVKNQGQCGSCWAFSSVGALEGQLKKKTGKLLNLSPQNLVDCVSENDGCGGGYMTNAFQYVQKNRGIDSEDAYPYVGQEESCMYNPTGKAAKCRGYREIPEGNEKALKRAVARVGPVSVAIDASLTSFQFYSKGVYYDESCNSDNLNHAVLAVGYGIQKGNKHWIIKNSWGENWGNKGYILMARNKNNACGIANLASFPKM

Caspase-1 (Homo sapiens) = Caspase-1 (Homo sapiens) (UniProt P29466); experiment: Inhibition of caspase-1 (unknown origin) at 10 uM
Caspase-3 (Homo sapiens) = Caspase-3 (Homo sapiens) (UniProt P42574); experiment: Inhibition of caspase-3 (unknown origin) at 10 uM
[6] = target: T3, Mucosa-associated lymphoid tissue lymphoma translocation protein 1 (Homo sapiens) (UniProt Q9UDY8); experiment: Inhibition of MALT1 (unknown origin) expressed in PMA/IO-stimulated human Raji Glosensor cells by reporter gene assay; assay type: cell-based
T3 sequence (whole entry): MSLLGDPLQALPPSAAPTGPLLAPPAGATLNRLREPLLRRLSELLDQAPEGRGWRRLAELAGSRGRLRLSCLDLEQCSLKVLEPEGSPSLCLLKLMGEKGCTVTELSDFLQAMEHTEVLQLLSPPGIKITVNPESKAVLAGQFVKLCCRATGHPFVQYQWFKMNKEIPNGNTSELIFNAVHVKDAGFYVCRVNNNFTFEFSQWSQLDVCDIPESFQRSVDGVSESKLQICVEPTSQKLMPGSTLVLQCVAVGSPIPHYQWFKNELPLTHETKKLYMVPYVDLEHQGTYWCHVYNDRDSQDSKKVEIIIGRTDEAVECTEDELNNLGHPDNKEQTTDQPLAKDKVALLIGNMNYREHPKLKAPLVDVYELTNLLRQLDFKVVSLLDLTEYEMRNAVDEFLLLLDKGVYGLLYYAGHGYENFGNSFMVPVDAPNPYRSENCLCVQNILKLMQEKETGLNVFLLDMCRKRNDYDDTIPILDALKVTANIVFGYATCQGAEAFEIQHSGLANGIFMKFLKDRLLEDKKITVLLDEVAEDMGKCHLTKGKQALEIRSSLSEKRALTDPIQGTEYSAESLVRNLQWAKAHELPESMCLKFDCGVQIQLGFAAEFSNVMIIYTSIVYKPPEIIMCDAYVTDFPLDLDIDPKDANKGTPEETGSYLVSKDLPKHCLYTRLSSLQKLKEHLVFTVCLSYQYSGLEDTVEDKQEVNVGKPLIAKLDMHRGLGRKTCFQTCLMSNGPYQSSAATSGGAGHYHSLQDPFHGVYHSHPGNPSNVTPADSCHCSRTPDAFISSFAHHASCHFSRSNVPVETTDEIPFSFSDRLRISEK

[7] = target: Prothrombin (Homo sapiens) (UniProt P00734); experiment: Inhibition of thrombin (unknown origin) at 1 uM relative to control
[8] = target: Kallikrein-1 (Homo sapiens) (UniProt P06870); experiment: Inhibition of KLK1 (unknown origin) at 10 uM
[9] = target: Cathepsin S (Homo sapiens) (UniProt P25774); experiment: Inhibition of cathepsin S (unknown origin) at 100 nM relative to control
[10] = target: T4, Calpain1/2 (Homo sapiens) (UniProt P17655+P07384); experiment: Inhibition of calpain (unknown origin) at 1 uM relative to control; assay type: protein assay
Trypsin (Homo sapiens) [11] = target: T1, Trypsin (Homo sapiens); experiment: Inhibition of trypsin (unknown origin) at 100 nM relative to control; assay type: protein assay
[12] = target: Cathepsin B (Homo sapiens) (UniProt P07858); experiment: Inhibition of cathepsin B (unknown origin) at 1 uM relative to control
[13] = target: Cathepsin D (Homo sapiens) (UniProt P07339); experiment: Inhibition of cathepsin D (unknown origin) at 10 uM
Legumain (Homo sapiens) = Legumain (Homo sapiens) (UniProt Q99538); experiment: Inhibition of legumain (unknown origin) at 10 uM
OCI-Ly3 = experiment: Antitumor activity against human OCI-LY3 cells xenografted in ip dosed NOD Cg-rkdc SCID Il2rgtm1Wjl/SzJ mouse assessed as effect on tumor growth administered twice daily for 16 to 24 days measured 4 hrs post-last dose; assay type: functional, organism-based
[14] = Drug uptake in ip dosed mouse plasma by LC-MS/MS analysis; assay type: ADME, organism-based; details: in vivo
Caspase-7 (Homo sapiens) = Caspase-7 (Homo sapiens) (UniProt P55210); experiment: Inhibition of caspase-7 (unknown origin) at 10 uM
Trypsin (Homo sapiens) [15] = target: T1, Trypsin (Homo sapiens); experiment: Inhibition of trypsin (unknown origin) at 10 uM relative to control; assay type: protein assay
[16] = target: Cathepsin B (Homo sapiens) (UniProt P07858); experiment: Inhibition of cathepsin B (unknown origin) at 10 uM relative to control
[17] = target: T2, Cathepsin K (Homo sapiens); experiment: Inhibition of cathepsin K (unknown origin) at 100 nM relative to control
[18] = Drug uptake in iv dosed mouse plasma by LC-MS/MS analysis; assay type: ADME, organism-based; details: in vivo
[19] = target: T4, Calpain1/2 (Homo sapiens); experiment: Inhibition of calpain (unknown origin) at 100 nM relative to control; assay type: protein assay
[20] = target: Procathepsin L (Homo sapiens) (UniProt P07711); experiment: Inhibition of cathepsin L (unknown origin) at 10 uM relative to control
[21] = target: T4, Calpain1/2 (Homo sapiens); experiment: Inhibition of calpain (unknown origin) at 10 uM relative to control; assay type: protein assay
[22] = target: Cathepsin G (Homo sapiens) (UniProt P08311); experiment: Inhibition of cathepsin G (unknown origin) at 10 uM
[23] = target: Tryptase beta-2 (Homo sapiens) (UniProt P20231); experiment: Inhibition of tryptase b2 (unknown origin) at 100 nM relative to control
Caspase-2 (Homo sapiens) = Caspase-2 (Homo sapiens) (UniProt P42575); experiment: Inhibition of caspase-2 (unknown origin) at 10 uM
Caspase-6 (Homo sapiens) = Caspase-6 (Homo sapiens) (UniProt P55212); experiment: Inhibition of caspase-6 (unknown origin) at 10 uM
[24] = target: Caspase-10 (Homo sapiens) (UniProt Q92851); experiment: Inhibition of caspase-10 (unknown origin) at 10 uM
Chain of Caspase-10 (Homo sapiens) (Q92851 220-415 limits assumed): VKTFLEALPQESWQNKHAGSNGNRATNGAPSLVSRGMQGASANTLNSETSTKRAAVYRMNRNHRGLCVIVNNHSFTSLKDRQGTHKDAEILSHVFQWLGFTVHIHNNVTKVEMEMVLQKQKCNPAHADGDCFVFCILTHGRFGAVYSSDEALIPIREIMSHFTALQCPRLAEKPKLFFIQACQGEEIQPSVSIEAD
Chain of Caspase-10 (Homo sapiens) (Q92851 416-521 limits assumed): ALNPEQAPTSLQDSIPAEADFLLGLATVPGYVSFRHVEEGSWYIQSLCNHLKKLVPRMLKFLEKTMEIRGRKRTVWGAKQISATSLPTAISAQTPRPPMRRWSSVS

T4 sequence (P07384 whole entry, looked up): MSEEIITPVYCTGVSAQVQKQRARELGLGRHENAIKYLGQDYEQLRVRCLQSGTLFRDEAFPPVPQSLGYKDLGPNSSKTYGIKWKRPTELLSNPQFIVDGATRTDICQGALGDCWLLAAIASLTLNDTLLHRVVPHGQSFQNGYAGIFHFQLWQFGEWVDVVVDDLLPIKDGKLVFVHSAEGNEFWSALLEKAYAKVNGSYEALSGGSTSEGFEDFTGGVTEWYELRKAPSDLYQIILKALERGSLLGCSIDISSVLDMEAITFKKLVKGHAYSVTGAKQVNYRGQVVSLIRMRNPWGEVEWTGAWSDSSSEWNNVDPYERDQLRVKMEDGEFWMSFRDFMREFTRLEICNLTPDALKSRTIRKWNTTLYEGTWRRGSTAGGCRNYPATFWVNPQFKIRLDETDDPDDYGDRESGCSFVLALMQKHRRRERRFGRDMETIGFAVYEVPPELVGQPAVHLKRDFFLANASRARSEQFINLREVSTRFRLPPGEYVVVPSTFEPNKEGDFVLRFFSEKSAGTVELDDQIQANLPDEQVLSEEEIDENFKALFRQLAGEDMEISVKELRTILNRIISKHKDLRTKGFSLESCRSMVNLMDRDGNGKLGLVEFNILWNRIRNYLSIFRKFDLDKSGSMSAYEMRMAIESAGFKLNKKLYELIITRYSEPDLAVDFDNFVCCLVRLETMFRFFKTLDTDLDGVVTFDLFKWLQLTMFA
T4 sequence (P17655 whole entry, looked up): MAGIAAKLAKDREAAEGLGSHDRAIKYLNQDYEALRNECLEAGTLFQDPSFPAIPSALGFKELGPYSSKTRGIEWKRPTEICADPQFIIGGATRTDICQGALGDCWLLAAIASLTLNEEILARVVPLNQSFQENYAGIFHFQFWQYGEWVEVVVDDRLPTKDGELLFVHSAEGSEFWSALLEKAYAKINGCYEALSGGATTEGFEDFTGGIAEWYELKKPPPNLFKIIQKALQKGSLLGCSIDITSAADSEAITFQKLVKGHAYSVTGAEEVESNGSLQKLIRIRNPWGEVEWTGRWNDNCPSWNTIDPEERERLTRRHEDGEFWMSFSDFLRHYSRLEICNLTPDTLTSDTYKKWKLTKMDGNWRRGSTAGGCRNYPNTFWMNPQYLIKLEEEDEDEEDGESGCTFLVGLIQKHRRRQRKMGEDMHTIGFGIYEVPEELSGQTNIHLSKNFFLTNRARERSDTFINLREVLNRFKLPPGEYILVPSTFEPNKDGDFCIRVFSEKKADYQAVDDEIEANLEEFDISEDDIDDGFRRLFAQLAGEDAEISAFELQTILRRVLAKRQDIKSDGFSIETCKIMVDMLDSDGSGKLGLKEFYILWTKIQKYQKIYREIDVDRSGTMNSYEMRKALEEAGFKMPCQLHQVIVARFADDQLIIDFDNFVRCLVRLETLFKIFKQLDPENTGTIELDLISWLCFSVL
Chain of Tryptase beta-2 (Homo sapiens) (P20231 whole entry): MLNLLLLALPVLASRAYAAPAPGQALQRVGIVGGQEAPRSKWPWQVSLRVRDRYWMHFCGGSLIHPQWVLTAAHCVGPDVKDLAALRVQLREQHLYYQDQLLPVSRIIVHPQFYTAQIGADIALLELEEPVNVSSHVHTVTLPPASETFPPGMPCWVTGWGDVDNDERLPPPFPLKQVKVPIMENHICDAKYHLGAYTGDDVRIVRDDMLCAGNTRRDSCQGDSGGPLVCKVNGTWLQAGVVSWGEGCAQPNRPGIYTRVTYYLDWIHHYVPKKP
Chain of Caspase-2 (Homo sapiens) (P42575 170-325 limits assumed): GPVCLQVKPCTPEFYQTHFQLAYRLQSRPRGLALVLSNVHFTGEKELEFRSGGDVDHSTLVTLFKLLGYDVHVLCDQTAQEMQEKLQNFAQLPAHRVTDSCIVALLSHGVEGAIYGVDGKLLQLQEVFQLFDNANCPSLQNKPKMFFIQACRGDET
Chain of Caspase-2 (Homo sapiens) (P42575 334-452 limits assumed): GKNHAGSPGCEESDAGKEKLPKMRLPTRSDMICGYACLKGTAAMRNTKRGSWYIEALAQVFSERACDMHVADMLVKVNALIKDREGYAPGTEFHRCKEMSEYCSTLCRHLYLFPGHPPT
Chain of Caspase-1 (Homo sapiens) (P29466 120-297 limits assumed): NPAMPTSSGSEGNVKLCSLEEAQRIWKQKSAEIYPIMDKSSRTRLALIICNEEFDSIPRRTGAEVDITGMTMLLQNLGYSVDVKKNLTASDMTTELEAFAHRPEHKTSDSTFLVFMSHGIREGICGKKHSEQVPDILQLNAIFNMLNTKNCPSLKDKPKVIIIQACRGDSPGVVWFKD
Chain of Caspase-1 (Homo sapiens) (P29466 317-404 limits assumed): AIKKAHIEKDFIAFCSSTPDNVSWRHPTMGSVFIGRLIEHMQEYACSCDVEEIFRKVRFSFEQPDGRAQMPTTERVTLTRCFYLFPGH
Chain of Caspase-6 (Homo sapiens) (P55212 24-179 limits assumed): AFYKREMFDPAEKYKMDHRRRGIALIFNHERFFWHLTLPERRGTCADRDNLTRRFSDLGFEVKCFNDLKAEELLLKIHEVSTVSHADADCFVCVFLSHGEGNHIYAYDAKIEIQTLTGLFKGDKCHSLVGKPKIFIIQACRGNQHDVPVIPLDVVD
Chain of Caspase-6 (Homo sapiens) (P55212 194-293 limits assumed): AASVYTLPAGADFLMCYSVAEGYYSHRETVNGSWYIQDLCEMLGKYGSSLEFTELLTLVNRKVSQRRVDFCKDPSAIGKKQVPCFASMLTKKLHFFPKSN
Chain of Legumain (Homo sapiens) (Q99538 whole entry): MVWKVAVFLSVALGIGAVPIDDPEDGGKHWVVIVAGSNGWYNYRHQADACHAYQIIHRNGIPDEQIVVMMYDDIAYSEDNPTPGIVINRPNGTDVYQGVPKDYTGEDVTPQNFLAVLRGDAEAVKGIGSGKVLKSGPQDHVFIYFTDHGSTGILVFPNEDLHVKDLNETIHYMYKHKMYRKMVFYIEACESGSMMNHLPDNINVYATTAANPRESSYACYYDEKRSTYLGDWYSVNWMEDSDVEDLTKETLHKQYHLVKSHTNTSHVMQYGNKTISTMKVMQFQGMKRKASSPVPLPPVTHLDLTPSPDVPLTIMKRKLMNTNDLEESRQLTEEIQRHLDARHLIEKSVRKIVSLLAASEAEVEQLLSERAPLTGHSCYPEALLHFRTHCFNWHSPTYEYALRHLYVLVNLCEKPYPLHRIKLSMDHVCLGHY
Chain of Procathepsin L (Homo sapiens) (P07711 114-333 limits assumed): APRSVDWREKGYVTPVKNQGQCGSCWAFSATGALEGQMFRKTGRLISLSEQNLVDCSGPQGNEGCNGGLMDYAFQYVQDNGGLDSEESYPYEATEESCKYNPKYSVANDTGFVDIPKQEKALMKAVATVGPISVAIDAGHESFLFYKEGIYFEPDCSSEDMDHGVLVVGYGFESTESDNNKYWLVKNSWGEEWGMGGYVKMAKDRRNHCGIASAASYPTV
Chain of Cathepsin D (Homo sapiens) (P07339 65-162 limits assumed): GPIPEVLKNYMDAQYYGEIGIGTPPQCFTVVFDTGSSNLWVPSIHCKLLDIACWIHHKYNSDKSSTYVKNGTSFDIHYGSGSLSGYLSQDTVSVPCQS
Chain of Cathepsin D (Homo sapiens) (P07339 169-412 limits assumed): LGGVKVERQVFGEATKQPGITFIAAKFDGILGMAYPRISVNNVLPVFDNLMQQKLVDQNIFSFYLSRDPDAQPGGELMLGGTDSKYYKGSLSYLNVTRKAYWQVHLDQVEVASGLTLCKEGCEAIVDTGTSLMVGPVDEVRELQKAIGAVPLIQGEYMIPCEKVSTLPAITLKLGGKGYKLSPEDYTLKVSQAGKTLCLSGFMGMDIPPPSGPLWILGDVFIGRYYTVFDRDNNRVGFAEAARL
Chain of Caspase-3 (Homo sapiens) (P42574 29-175 limits assumed): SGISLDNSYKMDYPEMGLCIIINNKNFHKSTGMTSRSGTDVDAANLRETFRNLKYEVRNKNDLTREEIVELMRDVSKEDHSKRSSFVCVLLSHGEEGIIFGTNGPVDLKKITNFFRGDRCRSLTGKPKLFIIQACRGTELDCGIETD
Chain of Caspase-3 (Homo sapiens) (P42574 176-277 limits assumed): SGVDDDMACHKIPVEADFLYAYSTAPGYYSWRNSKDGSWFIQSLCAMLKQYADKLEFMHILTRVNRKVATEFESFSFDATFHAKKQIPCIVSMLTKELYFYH
Chain of Cathepsin S (Homo sapiens) (P25774 115-331 limits assumed): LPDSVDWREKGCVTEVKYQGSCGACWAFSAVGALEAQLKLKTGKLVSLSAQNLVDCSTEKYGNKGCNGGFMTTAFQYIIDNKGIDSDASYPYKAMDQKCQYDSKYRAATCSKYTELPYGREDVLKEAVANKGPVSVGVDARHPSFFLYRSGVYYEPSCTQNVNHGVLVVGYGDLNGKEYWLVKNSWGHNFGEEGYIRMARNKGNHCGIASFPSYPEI
Chain of Cathepsin G (Homo sapiens) (P08311 whole entry): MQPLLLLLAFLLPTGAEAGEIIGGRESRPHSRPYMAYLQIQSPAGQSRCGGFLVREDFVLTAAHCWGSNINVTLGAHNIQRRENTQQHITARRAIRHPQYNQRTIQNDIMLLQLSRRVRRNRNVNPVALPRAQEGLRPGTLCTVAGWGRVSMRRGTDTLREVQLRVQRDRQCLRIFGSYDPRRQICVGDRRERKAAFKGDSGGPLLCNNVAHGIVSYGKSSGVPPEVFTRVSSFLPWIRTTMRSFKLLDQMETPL

Compound: CC(C)[C@H](NC(=O)c1ccc(Br)cc1)C(=O)N1CCC[C@H]1C(=O)N[C@@H](CCCNC(=N)N)C(=O)CF
- inhibition [1]: 83%
- inhibition (Caspase-8 (Homo sapiens)): Active
- inhibition (Trypsin (Homo sapiens) [2]): 98%
- inhibition [3]: 14%
- inhibition [4]: Active
- inhibition [5]: 97.1%
- inhibition (Caspase-1 (Homo sapiens)): Active
- inhibition (Caspase-3 (Homo sapiens)): Active
- IC50 [6]: 70 to 71 nM
- inhibition [7]: 25.2%
- inhibition [8]: Active
- inhibition [9]: 78.2%
- inhibition [10]: 25.6%
- inhibition (Trypsin (Homo sapiens) [11]): 92.9%
- inhibition [12]: 92.5%
- inhibition [13]: Active
- inhibition (Legumain (Homo sapiens)): Active
- Activity (OCI-Ly3): Active
- Drug uptake [14]: Active
- inhibition (Caspase-7 (Homo sapiens)): Active
- inhibition (Trypsin (Homo sapiens) [15]): 95.3%
- inhibition [16]: 99.6%
- inhibition [17]: 63.2%
- Drug uptake [18]: Active
- inhibition [19]: 23.6%
- inhibition [20]: 44.9%
- inhibition [21]: 105%
- inhibition [22]: Active
- inhibition [23]: 6.1%
- inhibition (Caspase-2 (Homo sapiens)): Active
- inhibition (Caspase-6 (Homo sapiens)): Active
- inhibition [24]: Active
